Assay results: US4985447A, “Certain benzoquinones, naphthoquinones and derivatives thereof which exhibit thromboxane A2 synthetase inhibition or receptor antagonism and the like” (Takeda Chemical Industries, Ltd., priority 1986, dated 1991)

Legend:
[1] = biological target: T1, Thromboxane A2 (TXA2) synthetase (Equus caballus, UniProt A0A9L0T8T9); assay: Inhibition of Thromboxane A2 (TXA2) synthetase (horse platelet microsome); format: biochemical; conditions: read-out: Inhibition of Thromboxane A2 (TXA2) synthetase; for inhibition at 1 µM: 10^-6 M; for inhibition at 0.1 µM: 10^-7 M
T1 sequence (A0A9L0T8T9 2-534): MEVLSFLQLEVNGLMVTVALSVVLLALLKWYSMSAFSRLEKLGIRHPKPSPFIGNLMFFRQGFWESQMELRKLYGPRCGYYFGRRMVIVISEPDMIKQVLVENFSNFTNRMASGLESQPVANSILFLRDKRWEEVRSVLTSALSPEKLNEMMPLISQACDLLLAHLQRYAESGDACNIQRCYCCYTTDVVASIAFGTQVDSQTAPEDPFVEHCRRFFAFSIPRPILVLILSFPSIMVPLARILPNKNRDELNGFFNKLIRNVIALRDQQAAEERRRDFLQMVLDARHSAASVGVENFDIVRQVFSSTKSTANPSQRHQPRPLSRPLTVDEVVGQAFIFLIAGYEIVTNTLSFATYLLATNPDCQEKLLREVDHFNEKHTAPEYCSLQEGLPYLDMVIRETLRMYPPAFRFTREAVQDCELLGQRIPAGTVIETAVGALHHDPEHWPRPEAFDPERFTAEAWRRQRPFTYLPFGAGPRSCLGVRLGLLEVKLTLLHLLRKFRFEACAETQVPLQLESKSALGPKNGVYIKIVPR
Experimental: Inhibition of Thromboxane A2 (TXA2) synthetase
(§1) As a preparation of TXA2 synthetase, horse platelet microsome treated with indomethacin (indomethacin-treated horse platelet microsome: IPM) according to the method of Needleman et al. (Science 193 163, 1979) was used. To 60 μl of the solution of IPM in 50 mM Tris buffer(pH 7.5) (containing 140 μg on the protein basis), 60μof a solution containing a drug at a variable concentration was added and kept still at room temperature for 5 minutes. One hundred μl of this mixture was taken, to which 20 μl of a buffer containing 30 ng cf prostaglandin H2 (PGH2) with ice-cooling and kept still at 0° C. for 5 minutes to produce thromboxane A2 (TXA2). The reaction was stopped by addition of 500 μl of Tris buffer, and 50 μl of the resultant solution was subjected to radioimmunoassay of thromboxane B2 (TXB2), a stable metabolite of TXA2 [Shibouta et al. Biochem. Pharmacol. 28 3601, 1979]. The rate of inhibition (%) of TXA2 synthetase was determined from the difference in TXB2 productivity between the untreated group and the treated group.
as §1, with “60 μl of” for “60μof”, “of” for “cf”

[2] = Effect on occurrence of ventricular arrhythmia due to ischemia-reperfusion in rat; format: in vivo, rat (Sprague-Dawley); conditions: 30 mg/kg, p.o., rats showing abnormal function/rats used, during 10 minutes of reperfusion; for Incidence of ventricular fibrillation: **p<0.01 (X^2 test); for Incidence of cardiac arrest / Incidence of ventricular tachycardia: *p<0.05 (X^2 test)
Experimental: Procedure: The experiment was carried out in Sprague-Dawley rat (male, 11-12 weeks old) according to the method of A. S. Manning (Circ. Res. 55, 545, 1984). A rat was given orally a drug or water at the dose of 5 ml/kg, and anesthetized 1 hour later with pentobarbital (50 mg/kg, intraperitoneal injection). The rat was thoractomized under artificial respiration and the coronary left anterior descending artery was ligated for 5 minutes, followed by reperfusion for 10 minutes. The incidences of ventricular tachycardia, ventricular fibrillation and cardiac arrest observed for the 10 minutes of reperfusion were determined.

[3] = Effect on cerebral ischemic seizure in spontaneously hypertensive rat; format: in vivo; conditions: orally at 30 mg/kg
Experimental: Procedure: A spontaneously hypertensive rat (male, 20-23 weeks old) was given orally a compound or water at the dose of 5 ml/kg, and 1 hour later anesthetized with pentobarbital. Bilateral common carotid arteries were ligated, and the interval from immediately after the ligation to the occurrence of seizure (cramp, jumping, etc.) was measured.

[4] = biological target: T2, Thromboxane A2 (TXA2) receptor (Oryctolagus cuniculus, UniProt Q6WQI8); assay: Thromboxane A2 (TXA2) receptor antagonism (rabbit aorta strip contraction by U-46619); conditions: for Inhibition of contraction of rabbit aorta strip due to U-46619: U-46619 10^-7 M, mean ± standard error, 6 cases
T2 construct: contraction by U-46619
T2 sequence (Q6WQI8 1-233): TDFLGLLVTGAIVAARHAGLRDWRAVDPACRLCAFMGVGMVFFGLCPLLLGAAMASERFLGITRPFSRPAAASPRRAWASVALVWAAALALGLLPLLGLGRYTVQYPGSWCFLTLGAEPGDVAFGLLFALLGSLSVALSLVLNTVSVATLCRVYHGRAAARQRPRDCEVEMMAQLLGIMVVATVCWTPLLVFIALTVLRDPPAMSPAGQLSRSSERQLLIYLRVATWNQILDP
Experimental: Thromboxane A2 (TXA2) receptor antagonism
Procedure: A spiral strip of the rabbit aorta (2-3 mm wide, about 3 cm long) was suspended in Krebs-Henseleit solution under the load of 2 g. The Krebs-Henseleit solution was saturated with a mixed gas of 95% O2 -5% CO2 and warmed at 37° C. Inhibition of the contraction of the vascular strip caused by a TXA2 mimic substance, U-46619* (10^-7 M), by pretreatment with Compound No.13 30 minutes before was studied.

inhibition at 1 µM [1] [%]	inhibition at 0.1 µM [1] [%]	Inhibition of contraction of rabbit aorta strip due to U-46619 ([4]; 10^-5 M) [%]	Inhibition of contraction of rabbit aorta strip due to U-46619 ([4]; 10^-5 M, listed as Compound No.13) [%]	TXA2 receptor antagonism (in words) ([4]; 10^-6 M and 10^-5 M)	Inhibition of contraction of rabbit aorta strip due to U-46619 ([4]; 10^-6 M) [%]	Inhibition of contraction of rabbit aorta strip due to U-46619 ([4]; 10^-6 M, listed as Compound No.13) [%]	Compound	Incidence of ventricular fibrillation [2]	Incidence of ventricular fibrillation ([2]; listed as Compound No.1)	Incidence of cardiac arrest [2]	Incidence of ventricular tachycardia [2]	Incidence of cardiac arrest ([2]; listed as Compound No.1)	Incidence of ventricular tachycardia ([2]; listed as Compound No.1)	Interval to the occurrence of cerebral ischemic seizure (in words) [3]	protective effect against cerebral ischemia (in words) [3]
76	37	–	–	–	–	–	CC1=C(C)C(=O)C(C(C)c2cccnc2)=C(C)C1=O (centres unmarked) [Compound No. 1, 3,5,6-trimethyl-2-[1-(3-pyridyl)ethyl]-1,4-benzoquinone]	3/8	inhibited significantly	1/8	6/8	inhibited significantly	inhibited significantly	prolonged remarkably the interval to the occurrence of cerebral ischemic seizure	exerts protective effects against cerebral ischemia
87	48	86 ± 8	86	remarkable TXA2 receptor antagonism	14 ± 4	14	CC1=C(C)C(=O)C(C(CCCCCC(=O)O)c2cccnc2)=C(C)C1=O (centres unmarked) [Compound No. 13, 7-(3-pyridyl)-7-(3,5,6-trimethyl-1,4-benzoquinon-2-yl)heptanoic acid]	–	–	–	–	–	–	–	–
